Measurements reported in patent publication US20180296456A1, “Decapeptide-12 Modulation of Sirtuin Gene Expression in Epidermal Keratinocyte Progenitors” (Escape Therapeutics, Inc., priority 2017, published 2018).
Peptide text beside a SMILES is read from it.

Experiments:
SIRT3 = SIRT3 transcription, semi-quantitative RT-PCR in human epidermal progenitors; format: cell-based; conditions: 72 h
Procedure: (§1) Human neonatal epidermal progenitors (Thermo Fisher Scientific, NY) were seeded in 6-well plates at a density of 2×10^5 cells/well. Each well received 2 ml of Epilife media containing 60 μM calcium chloride (Thermo Fisher Scientific, NY). Plates were incubated in a humidified chamber at 37 degrees Celsius and 5 percent CO2. Twenty-four hours later, cells were treated with various concentrations of oxyresveratrol or decapeptide-12 dissolved in PBS containing 5 percent DMSO. Control wells received vehicle only (5 percent DMSO and PBS). Final concentration of DMSO in each well was 0.05 percent.
(§2) After a 72 hour incubation period, cells were trypsinized and total RNA extracted, using RNeasy kit (Qiagen, Valencia, Calif.) according to the manufacturer's protocol.
(§3) RNA concentration was determined using nanodrop (Thermo fisher scientific, NY). Two μg of total RNA were used to synthesize cDNA using oligo dT primers and TaqMan reverse transcription reagents (Thermo fisher scientific, NY). The reaction was carried out in DNA Engine Peltier Thermal Cycler (Bio-Rad, Hercules, Calif.). The annealing temperature was 25 degrees Celsius for 10 minutes, followed by first strand synthesis at 48 degrees Celsius for 1 hour, and heat inactivation at 95 degrees Celsius for 5 minutes.
(§4) The SIRT1-7 primers (table 1) were designed using Primer3. The semi-quantitative PCR reactions were performed on a DNA Engine Peltier Thermo Cycler (Bio-Rad, Hercules, Calif.). PCR was carried under the following conditions: denaturation at 94 degrees Celsius for 2 minutes and primer extension at 54 degrees Celsius for 30 seconds in 34 cycles for SIRT 1-7 and the housekeeping gene 18S.
(§5) Samples were run and resolved on a 1.5 percent agarose gel containing 0.5 μg/ml of ethidium bromide and imaged using the FluorChem HD2 Imaging System (Protein simple, San Jose, Calif.). Densitometry analysis was carried out using the AlphaEase FC software (Protein simple, San Jose, Calif.). Intensity ratios were calculated as the intensity value for each gene divided by the intensity value of the internal control gene 18S.
(§6) The effect of the decapeptides P4, P4A, P4B, and P4C upon the transcription levels of sirtuins 1-7 was evaluated. Table 4 summarizes transcription levels for all four decapeptides with the corresponding genes, at tested concentrations of: 10, 30, 50, 100, and 300 (all in μM).

in vitro = format: cell-based; conditions: human, human epidermal progenitors
Procedure: Proliferation rates were determined using a TACS® MTT Cell Proliferation Kit (R&D systems, Minneapolis, Minn.). Cells were seeded at 2.5×10^4/well in 96-well plates in a humidified atmosphere with 5 percent CO2 at 37 degrees Celsius. Twenty-four hours later, decapeptide-12 or oxyresveratrol were added to the corresponding wells at varying concentrations (0, 3, 10, 30, 100, 300, and 1000 μM), and cultures were then incubated for 72 hours. The remainder of the procedure was performed following the manufacturer's protocol.
(§7) Proliferation rates for three human cell lines (epidermal progenitors, melanoblasts, and fibroblasts) were determined using a TACS® MTT Cell Proliferation Kit. Cells were seeded at 2.5×10^4/well in 96-well plates in a humidified atmosphere with 5 percent CO2 at 37 degrees Celsius. Twenty-four hours later, the decapeptides were added to the corresponding wells at varying concentrations and incubated for 72 hours. The remainder of the procedure was performed following the manufacturer's protocol.

[1] = MTT cell proliferation assay, melanoblasts; format: cell-based, human; conditions: human, MTT, 72 h, read-out: melanoblast proliferation rate after 72 hours
Procedure: as §7

[2] = Trypan blue cell viability, 7 days, epidermal progenitors; format: cell-based; conditions: human, relative to control, read-out: epidermal progenitor viability after 7 days
Procedure: (§8) The effect of each of the decapeptides upon cell viability was also tested. In particular, cells were incubated with the decapeptide at various concentrations and then counted for viability relative to the control (untreated cells) using trypan blue. Cytotoxicity was measured according to the following formula:
(§9) [1−(# of cells in control−# of live cells in test sample)/# of cells in control]×100 percent.

SIRT4 = SIRT4 transcription, semi-quantitative RT-PCR in human epidermal progenitors; format: cell-based; conditions: 72 h
Procedure: as §1, §2, §3, §4, §5, §6

[3] = Trypan blue cell viability, 7 days, melanoblasts; format: cell-based; conditions: human, relative to control, read-out: melanoblast viability after 7 days
Procedure: as §8, §9

SIRT1 = SIRT1 transcription, semi-quantitative RT-PCR in human epidermal progenitors; format: cell-based; conditions: 72 h
Procedure: as §1, §2, §3, §4, §5, §6

SIRT6 = SIRT6 transcription, semi-quantitative RT-PCR in human epidermal progenitors; format: cell-based; conditions: 72 h
Procedure: as §1, §2, §3, §4, §5, §6

SIRT2 = SIRT2 transcription, semi-quantitative RT-PCR in human epidermal progenitors; format: cell-based; conditions: 72 h
Procedure: as §1, §2, §3, §4, §5, §6

Compound: CCCCCCCCCCCCCCCC(=O)N[C@@H](Cc1ccc(O)cc1)C(=O)N[C@@H](CCCNC(=N)N)C(=O)N[C@@H](CO)C(=O)N[C@@H](CCCNC(=N)N)C(=O)N[C@@H](CCCCN)C(=O)N[C@@H](Cc1ccc(O)cc1)C(=O)N[C@@H](CO)C(=O)N[C@@H](CO)C(=O)N[C@@H](Cc1c[nH]c2ccccc12)C(=O)N[C@@H](Cc1ccc(O)cc1)C(N)=O [P4A, Palmitoyl-YRSRKYSSWY-amide] (HELM PEPTIDE1{[CCCCCCCCCCCCCCCC(=O)[*:2]].Y.R.S.R.K.Y.S.S.W.Y.[am]}$$$$V2.0)
- SIRT3 transcription increase relative to control (SIRT3; 10 μM): 25 ± 4%
- SIRT3 transcription increase relative to control (SIRT3; 30 μM): 26 ± 3%
- SIRT3 transcription increase relative to control (SIRT3; 50 μM): 60 ± 4%
- SIRT3 transcription increase relative to control (SIRT3; 100 μM): 152 ± 2%
- SIRT3 transcription increase relative to control (SIRT3; 300 μM): 147 ± 2%
- viability at 72 h, 3 µM (in vitro): 99 ± 1%
- viability at 72 h, 10 µM (in vitro): 99 ± 1%
- viability at 72 h, 30 µM (in vitro): 98 ± 1%
- viability at 72 h, 50 µM (in vitro): 97 ± 1%
- viability at 72 h, 100 µM (in vitro): 97 ± 2%
- viability at 72 h, 300 µM (in vitro): 96 ± 2%
- viability at 72 h, 500 µM (in vitro): 96 ± 2%
- viability at 72 h, 1000 µM (in vitro): 94 ± 2%
- viability at 72 h, 3 µM ([1]; 3 μM): 100%
- viability at 72 h, 10 µM ([1]; 10 μM): 100%
- viability at 72 h, 30 µM ([1]; 30 μM): 99 ± 1%
- viability at 72 h, 50 µM ([1]; 50 μM): 98 ± 1%
- viability at 72 h, 100 µM ([1]; 100 μM): 97 ± 2%
- viability at 72 h, 300 µM ([1]; 300 μM): 97 ± 2%
- viability at 72 h, 500 µM ([1]; 500 μM): 96 ± 2%
- viability at 72 h, 1000 µM ([1]; 1000 μM): 95 ± 2%
- viability at 168 h, 3 µM ([2]; 3 μM): 100%
- viability at 168 h, 10 µM ([2]; 10 μM): 99 ± 1%
- viability at 168 h, 30 µM ([2]; 30 μM): 98.2 ± 1%
- viability at 168 h, 50 µM ([2]; 50 μM): 97.5 ± 1%
- viability at 168 h, 100 µM ([2]; 100 μM): 96.9 ± 2%
- viability at 168 h, 300 µM ([2]; 300 μM): 95.6 ± 2%
- viability at 168 h, 500 µM ([2]; 500 μM): 94.3 ± 2%
- viability at 168 h, 1000 µM ([2]; 1000 μM): 93.6 ± 3%
- SIRT4 transcription increase relative to control (SIRT4; 10 μM): 16 ± 1%
- SIRT4 transcription increase relative to control (SIRT4; 30 μM): 16 ± 1%
- SIRT4 transcription increase relative to control (SIRT4; 50 μM): 9 ± 4%
- SIRT4 transcription increase relative to control (SIRT4; 100 μM): 98 ± 12%
- SIRT4 transcription increase relative to control (SIRT4; 300 μM): 65 ± 1%
- viability at 168 h, 3 µM ([3]; 3 μM): 100%
- viability at 168 h, 10 µM ([3]; 10 μM): 99 ± 1%
- viability at 168 h, 30 µM ([3]; 30 μM): 98.5 ± 1%
- viability at 168 h, 50 µM ([3]; 50 μM): 98 ± 1%
- viability at 168 h, 100 µM ([3]; 100 μM): 97 ± 2%
- viability at 168 h, 300 µM ([3]; 300 μM): 96.2 ± 2%
- viability at 168 h, 500 µM ([3]; 500 μM): 95.6 ± 2%
- viability at 168 h, 1000 µM ([3]; 1000 μM): 94.8 ± 2%
- SIRT1 transcription increase relative to control (SIRT1; 10 μM): 18 ± 2%
- SIRT1 transcription increase relative to control (SIRT1; 30 μM): 19 ± 1%
- SIRT1 transcription increase relative to control (SIRT1; 50 μM): 42 ± 5%
- SIRT1 transcription increase relative to control (SIRT1; 100 μM): 144 ± 5%
- SIRT1 transcription increase relative to control (SIRT1; 300 μM): 184 ± 2%
- SIRT6 transcription increase relative to control (SIRT6; 10 μM): 24 ± 5%
- SIRT6 transcription increase relative to control (SIRT6; 30 μM): 25 ± 5%
- SIRT6 transcription increase relative to control (SIRT6; 50 μM): 33 ± 7%
- SIRT6 transcription increase relative to control (SIRT6; 100 μM): 135 ± 10%
- SIRT6 transcription increase relative to control (SIRT6; 300 μM): 85 ± 5%
- SIRT2 transcription increase relative to control (SIRT2; 10 μM): 14 ± 1%
- SIRT2 transcription increase relative to control (SIRT2; 30 μM): 15 ± 1%
- SIRT2 transcription increase relative to control (SIRT2; 50 μM): 6 ± 3%
- SIRT2 transcription increase relative to control (SIRT2; 100 μM): 48 ± 1%
- SIRT2 transcription increase relative to control (SIRT2; 300 μM): 30 ± 5%
